15 compounds from ChEMBL document CHEMBL5346924, “Optically activated MEK1/2 inhibitors (Opti-MEKi) as potential antimelanoma agents” (Eur J Med Chem, 2023) can be followed below.

The source made the active and inactive calls. The rule behind the calls is not given here.

Data set [1] can be described thus: Photoactivation of the compound assessed as photocleavage by measuring decay half-life in the presence of 365 nm UV irradiation by HPLC based LC-MS analysis.
For data set [2], the system named is A-375. Kind of data set: Antiproliferative activity against human A-375 cells harboring BRAF V600E mutant assessed as cell growth inhibition preincubated with compound for 1 hrs followed by UV irradiation for 1 min and measured 72 hrs post compound treatment by CellTiter-Glo luminescent assay. It counts as functional. The note with it: A-375, light or radiation study.

For data set [3], the system named is A549. In words: Antiproliferative activity against human A549 cells harboring KRas […] mutant assessed as cell growth inhibition preincubated with compound for 1 hrs followed by UV irradiation for 5 mins and measured 72 hrs post compound treatment by CellTiter-Glo luminescent assay. It counts as functional. The following applies: A549, light or radiation study. (In general: ATP-based viability assays read luminescence as a measure of living cells.)

The nature of data set [4]: Cytotoxicity against HEK293T cells assessed as cell growth inhibition incubated for 72 hrs by CellTiter-Glo luminescent assay. Format: toxicity, cell-based, HEK-293T. The following applies: human.
In data set [5] the test system is HCT-116. In words: Antiproliferative activity against human HCT-116 cells harboring KRAS G13D mutant assessed as cell growth inhibition preincubated with compound for 1 hrs followed by UV irradiation for 5 mins and measured 72 hrs post compound treatment by CellTiter-Glo luminescent assay. It counts as functional. The note with it: HCT-116, light or radiation study.

Data set [6] concerns HCT-116. In words: Antiproliferative activity against human HCT-116 cells harboring KRAS G13D mutant assessed as cell growth inhibition incubated for 72 hrs in the absence of UV irradiation by CellTiter-Glo luminescent assay. It counts as functional. The note with it: HCT-116, light or radiation study.
Data set [7] relates to A549. Kind of data set: Antiproliferative activity against human A549 cells harboring KRAS […] mutant assessed as cell growth inhibition incubated for 72 hrs in the absence of UV irradiation by CellTiter-Glo luminescent assay. The following applies: A549, light or radiation study. Format: functional.
Data set [8] relates to A-375. Kind of data set: Antiproliferative activity against human A-375 cells harboring BRAF V600E mutant assessed as cell growth inhibition incubated for 72 hrs in the absence of UV irradiation by CellTiter-Glo luminescent assay. It counts as functional. The note with it: A-375, light or radiation study.
In data set [9] the test system is A-375. In words: Antiproliferative activity against human A-375 cells harboring BRAF V600E mutant assessed as cell growth inhibition preincubated with compound for 1 hrs followed by UV irradiation for 5 mins and measured 72 hrs post compound treatment by CellTiter-Glo luminescent assay. The following applies: A-375, light or radiation study. It counts as functional.

The nature of data set [10]: Photoactivation of the compound assessed as photocleavage in the presence of 365 nm UV irradiation by HPLC based LC-MS analysis.
The test system of data set [11] is A-375. Kind of data set: Antiproliferative activity against human A-375 cells harboring BRAF V600E mutant assessed as cell growth inhibition preincubated with compound for 1 hrs followed by UV irradiation for 3 mins and measured 72 hrs post compound treatment by CellTiter-Glo luminescent assay. Format: functional. The note with it: A-375, light or radiation study.

Data set [12] can be described thus: Stability in human blood plasma assessed as half-life. It counts as ADME, cell-free.
For data set [13], the target named is Mitogen-activated protein kinase; ERK1/ERK2 (Homo sapiens, UniProt P27361+P28482). Kind of data set: Inhibition of ERK1/2 phosphorylation in human A-375 cells incubated for 1 hrs in the absence of UV irradiation by Western blot analysis. It counts as cell-based.
Data set [14] can be described thus: Stability of the compound under 365 nm UV irradiation measured after 10 mins. Format: physicochemical.
Data set [15] concerns A-375. In words: Inhibition of colony formation in human A-375 cells at 10 to 300 nM incubated for 10 days by crystal violet staining based analysis. The following applies: dose 10-300 nM, time 10.0 day. It counts as functional, cell-based.
Data set [16] is described as follows: Stability of the compound in PBS-DMSO solution assessed as drug degradation measured after 12 hrs in the absence of light irradiation. Format: physicochemical. The following applies: read-out: Drug degradation.
For data set [17], the system named is A-375. In words: Antiproliferative activity against human A-375 cells harboring BRAF V600E mutant assessed as cell growth inhibition preincubated with compound for 1 hrs followed by 365 nm light irradiation for 5 mins and measured 72 hrs post compound treatment by CellTiter-Glo luminescent assay. It counts as functional. The following applies: A-375, light or radiation study.

Data set [18] in a line: Cytotoxicity against HEK293T cells assessed as cell growth inhibition preincubated with compound for 1 hrs followed by 365 nm light irradiation for 5 mins and measured 72 hrs post compound treatment by CellTiter-Glo luminescent assay. Format: toxicity, cell-based, HEK-293T. The note with it: human.
A short description of data set [19]: Photoactivation of the compound assessed as fold change in caging efficiency.
Data set [20] has as its target Dual specificity mitogen-activated protein kinase kinase 1 (Homo sapiens, UniProt Q02750). In words: Inhibition of MEK1 (unknown origin) incubated for 1 hrs in the presence of ATP by FRET-based Z'-Lyte assay.
Data set [21] in a line: Photoactivation of the compound assessed as photocleavage by measuring mirdametinib recovery in the presence of 365 nm UV irradiation by HPLC based LC-MS analysis.

Chain of Dual specificity mitogen-activated protein kinase kinase 1 (Q02750 whole entry): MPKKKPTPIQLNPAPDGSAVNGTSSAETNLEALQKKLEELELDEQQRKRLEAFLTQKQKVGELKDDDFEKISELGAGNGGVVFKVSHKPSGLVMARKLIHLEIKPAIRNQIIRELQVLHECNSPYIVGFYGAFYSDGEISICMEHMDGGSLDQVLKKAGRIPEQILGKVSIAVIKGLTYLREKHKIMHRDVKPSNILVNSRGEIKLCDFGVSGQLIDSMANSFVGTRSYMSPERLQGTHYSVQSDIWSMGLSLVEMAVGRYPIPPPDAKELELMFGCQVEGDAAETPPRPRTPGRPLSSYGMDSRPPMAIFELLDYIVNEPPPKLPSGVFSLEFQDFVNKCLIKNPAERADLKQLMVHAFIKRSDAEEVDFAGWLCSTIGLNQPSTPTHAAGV

On to `O=[N+]([O-])c1cc2c(cc1CO/C(=N\OC[C@H](O)CO)c1ccc(F)c(F)c1Nc1ccc(I)cc1F)OCO2`, for which, in data set [1], the half-life was 1.68 min. The GI50 was 128 nM in the data set with A-375 [2]; 896 nM in the data set on A549 [3]; 236 nM with HCT-116 [5]; > 10000 nM in the data set with HCT-116 [6]; > 10000 nM with A549 [7]; 605 nM with A-375 [8]. The GI50 with A-375 [9] was 40.3 nM; in the data set with A-375 [11] it was 36.7 nM. The GI50 at 72 h in data set [4] was > 10000 nM. Moreover, in data set [10], the Drug metabolism entry is reported as “Metabolite_Detected”.
As to `O=C(NOCCO)c1ccc(F)c(F)c1Nc1ccc(I)cc1F`, the GI50 in the data set on A-375 [8] came out at 3.36 nM.
Consider `O=C(NOC[C@H](O)CO)c1ccc(F)c(F)c1Nc1ccc(I)cc1F` [MIRDAMETINIB], for which the GI50 with A-375 [2] came out at 1.37 nM; in the data set on A549 [3] it was 10.6 nM; in the data set with HCT-116 [5], 52.5 nM; in the data set with HCT-116 [6], 44.7 nM; in the data set on A549 [7], 4.94 nM; with A-375 [8], 1.28 nM. In addition, the GI50 in the data set with A-375 [9] is 1.49 nM; in the data set on A-375 [11], 1.59 nM. In [4], the GI50 at 72 h is > 10000 nM. The half-life in data set [12] is > 289 min. The EC50 in data set [13] is reported as ~ 1.2 nM. Besides, the Stability result in [14] is listed as “Stable”. Further, the inhibition result in the data set on A-375 [15] was “Active”.
For the compound `COc1cc(CN(c2ccc(I)cc2F)c2c(C(=O)NOC[C@H](O)CO)ccc(F)c2F)c([N+](=O)[O-])cc1OC`, the half-life in data set [1] is 0.19 min. Further, the GI50 in the data set on A-375 [2] was found to be 9.95 nM; in the data set with A-375 [8] it was 18.1 nM; in the data set on A-375 [9], 5.59 nM; in the data set on A-375 [11], 3.76 nM. The degraded at 12 h in data set [16] was > 30%.
As to `COc1cc(CO/C(=N\OC[C@H](O)CO)c2ccc(F)c(F)c2Nc2ccc(I)cc2F)c([N+](=O)[O-])cc1OC`, the half-life in data set [1] came to 1.71 min. Also, the GI50 in the data set on A-375 [2] was 272 nM; with A549 [3] it was 1890 nM; in the data set with HCT-116 [5], 1050 nM; with HCT-116 [6], 1920 nM; in the data set with A549 [7], > 10000 nM; with A-375 [8], 1170 nM. For the same compound, the GI50 with A-375 [9] is 82.2 nM; with A-375 [11] it was 82.8 nM. For the same compound, the GI50 at 72 h in data set [4] is > 10000 nM.
For the compound `COc1ccc(CN(c2ccc(I)cc2F)c2c(C(=O)NOC[C@H](O)CO)ccc(F)c2F)cc1OC`, in the data set with A-375 [8], the GI50 worked out at 1520 nM.
`COc1cc(COCCONC(=O)c2ccc(F)c(F)c2Nc2ccc(I)cc2F)c([N+](=O)[O-])cc1OC`: the half-life in data set [1] stood at 0.52 min. For the same compound, the GI50 in the data set with A-375 [2] worked out at 43.4 nM; in the data set with A-375 [8], 7130 nM; in the data set on A-375 [9], 9.4 nM; with A-375 [11], 16 nM.
Turning to `CCN(CC)c1ccc2c(COC(=O)[C@H](C)NC(=O)OC(C)(C)C)cc(=O)oc2c1`, the concentration for 50% growth inhibition (GI50) is 15.8 nM with A-375 [17] and > 100000 nM with A-375 [8]. For the same compound, the GI50 at 72 h in data set [18] is > 100000 nM.
Regarding `CC(OC(=O)[C@H](C)NC(=O)OC(C)(C)C)c1cc2c(cc1[N+](=O)[O-])OCO2` (some centres undefined), the figures for the GI50 in the data set on A-375 [17] and in the data set on A-375 [8] were > 100 nM and > 100000 nM, respectively. Further, in data set [18], the GI50 at 72 h is > 100000 nM.
Take `CCN(CC)c1ccc2c(CO/C(=N\OC[C@H](O)CO)c3ccc(F)c(F)c3Nc3ccc(I)cc3F)cc(=O)oc2c1`: in data set [19], the “fold change (FC)” value is recorded as > 5085. In addition, the half-life in data set [1] was determined as 0.2 min. Further, the GI50 in the data set on A-375 [2] was 222 nM; with A549 [3], 270 nM; with HCT-116 [5], 1750 nM; in the data set with HCT-116 [6], 1500 nM; with A549 [7], > 10000 nM; with A-375 [8], 9800 nM. The GI50 in the data set on A-375 [9] was determined as 108 nM; in the data set on A-375 [11], 123 nM. The GI50 at 72 h in data set [4] was > 10000 nM. In data set [20], the IC50 is > 30000 nM. Moreover, the Drug recovery in [21] was < 10%.
Consider `COc1cc(C(C)OC(=O)[C@H](C)NC(=O)OC(C)(C)C)c([N+](=O)[O-])cc1OC` (some centres undefined), for which the concentration for 50% growth inhibition (GI50) with A-375 [17] was > 100 nM; with A-375 [8], > 100000 nM. For the same compound, in data set [18], the GI50 at 72 h was > 100000 nM.
As to `COc1cc(COC(=O)[C@H](C)NC(=O)OC(C)(C)C)c([N+](=O)[O-])cc1OC`, the GI50 was > 100 nM with A-375 [17] and > 100000 nM in the data set on A-375 [8]. Moreover, the concentration for 50% growth inhibition (GI50) at 72 h in [18] is > 100000 nM.
`C[C@H](NC(=O)OC(C)(C)C)C(=O)O`: the GI50 is > 100 nM with A-375 [17] and > 100000 nM in the data set with A-375 [8]. Also, in data set [18], the GI50 at 72 h was > 100000 nM.
Take `CC(O/C(=N\OC[C@H](O)CO)c1ccc(F)c(F)c1Nc1ccc(I)cc1F)c1cc2c(cc1[N+](=O)[O-])OCO2` (some centres undefined): the half-life in data set [1] amounted to 1.26 min. The GI50 in the data set on A-375 [2] is 28.6 nM; in the data set with A549 [3], 478 nM; in the data set on HCT-116 [5], 169 nM; with HCT-116 [6] it was > 10000 nM; in the data set on A549 [7], > 10000 nM; in the data set on A-375 [8], 3610 nM. The GI50 in the data set with A-375 [9] came out at 7.17 nM; in the data set with A-375 [11] it was 9.7 nM. Further, the GI50 at 72 h in [4] was > 10000 nM. In data set [10], the Drug metabolism result is listed as “Metabolite_Detected”.
As for `C[C@H](NC(=O)OC(C)(C)C)C(=O)OCc1cc2c(cc1[N+](=O)[O-])OCO2`, the GI50 is > 100 nM with A-375 [17] and > 100000 nM with A-375 [8]. For the same compound, in data set [18], the GI50 at 72 h is > 100000 nM.

As usually defined, the half-life is the time in which the quantity being followed falls by half. Broadly, the GI50 is the concentration at which growth is held to half of that of the control. The IC50 is the point on the concentration scale where inhibition reaches its midpoint.
